Counter-ions that a name gives are not always drawn. Like-named read-outs stand apart in the source and are kept apart here.
Target: T1, HSF1 (Homo sapiens, UniProt Q00613)
T1 construct: functionally linked to an hsp70b promoter and therefore controlled by endogenous HSF1; endogenous in cells; host or cells: HeLa cells / HeLa-derived cell line Z74
T1 sequence (Q00613 1-529): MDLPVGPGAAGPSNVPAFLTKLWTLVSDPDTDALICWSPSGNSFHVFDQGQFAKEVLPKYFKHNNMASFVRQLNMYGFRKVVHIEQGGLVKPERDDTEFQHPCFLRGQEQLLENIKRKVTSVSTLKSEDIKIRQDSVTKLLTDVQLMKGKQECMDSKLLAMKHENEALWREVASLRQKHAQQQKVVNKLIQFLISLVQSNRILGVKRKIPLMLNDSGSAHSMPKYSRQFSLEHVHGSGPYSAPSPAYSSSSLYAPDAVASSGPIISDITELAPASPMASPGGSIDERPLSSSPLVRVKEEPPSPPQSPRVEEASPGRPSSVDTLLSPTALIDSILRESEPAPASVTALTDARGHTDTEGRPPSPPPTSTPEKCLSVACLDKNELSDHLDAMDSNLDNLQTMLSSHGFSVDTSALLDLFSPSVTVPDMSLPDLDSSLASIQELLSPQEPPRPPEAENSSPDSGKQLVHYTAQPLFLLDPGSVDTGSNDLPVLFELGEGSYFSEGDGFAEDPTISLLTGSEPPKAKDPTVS
Assay: Z74 cell-based reporter assay: heat-induced RLuc expression controlled by endogenous HSF1
Conditions: for IC50: inhibition of HSF1 activity [RLuc]; for inhibition at 12.5 µM: read-out: Inhibition of HSF1 activity at 12.5 μM IHSF [RLuc] (%); for inhibition at 25 µM: read-out: Inhibition of HSF1 activity at 25 μM IHSF [RLuc] (%)
Text: For screening this sublibrary, a cell-based assay was developed. We opted for a cell-based assay, because a cell-free assay would have had to be a DNA-binding assay. Such an assay would have limited discovery to molecules capable of interfering with the DNA-binding function of HSF1. This was thought to be too narrow a focus, considering that three of the four cavities identified in the HSF1 DNA-binding domain are not near the DNA interaction region. A straightforward cell-based assay, in which a HSF1-responsive gene would be assayed, was considered likely to be over-inclusive. Compounds would be scored as hits that inhibit any factor that is involved in HSF1 activation or prevents HSF1 deactivation. These factors include protein kinases, activators of protein phosphatases, factors affecting HSF1 mRNA stability, HSP90, HDAC6, etc. For developing a more discriminating cell-based assay, advantage was taken of the modular nature of HSF1. […] The cell-based assay developed (see below for the particular format employed) compared transactivation by wild type HSF1 and chimeric HSF1 in cells exposed to an HSF1-activating heat treatment in the presence of a sublibrary compound. A compound was scored as a hit, if it inhibited the activity of wild type HSF1 but not of chimeric HSF1.
The cell-based assay made use of HeLa-derived cell line Z74 that stably contains a gene for chimeric transcription factor LexA-(human) HSF1 under the control of a CMV early promoter, a firefly luciferase (flue) gene driven by a promoter responsive to the latter chimeric transcription factor and a Renilla luciferase (rluc) gene functionally linked to an hsp70b promoter and therefore controlled by endogenous HSF1 (FIG. 1A). As is shown in FIGS. 1B & C, the reporter genes responded similarly to heat dose, i.e., their activation depended on both duration of heat exposure and temperature of the exposure. […] Depletion of HSF1 (and LexA-HSF1) by siRNA supported the notion that this stress regulation is mediated by HSF1 (and LexA-HSF1). Therefore, the Z74 line was well suited for use in a screening assay aimed at discovering molecules that inhibit heat-induced HSF1 activity through interaction with the transcription factor's DNA-binding domain.
The compounds of the afore-mentioned biased sublibrary were screened in cell line Z74 at 12.5 and 25 μM concentrations. Typically, Z74 cultures in 96-well plates were exposed to compound or vehicle for 2 h, heat-treated at 43.0° C. for 30 min, and incubated further for 6 h at 37° C. to allow for accumulation of the luciferases. RLuc and FLuc activities were determined, typically using the Dual-Glo® Luciferase Assay System (Promega Corp., Madison, Wis.), and reading luciferase light counts in a Wallac Microbeta Trilux-1450 Luminometer (PerkinElmer, Waltham, Mass.). IHSF 001 was one of two library compounds that inhibited RLuc expression but not FLuc expression in heat-treated Z74 cells (Table 1; FIG. 2A). Therefore, IHSF 001 is an inhibitor of HSF1 function that specifically acts through the HSF1 DNA-binding domain. […] A corroborating experiment utilized a cell line containing an hsp70b promoter-driven fluc gene. […] IHSF 001 is (E)-ethyl 4-oxo-4-(thiazol-2-ylamino)but-2-enoate. The compound can be obtained from commercial sources (e.g., AKE-PB-90340538, Akos).

[1] = Z74 cells, 12.5 μM IHSF, negative values marked *: compound enhanced rLuc activity
[2] = Z74 cells, 25 μM IHSF, 2 h exposure, 43° C. 30 min, 6 h at 37° C.

Row | SMILES | IC50 (Z74 cells) | inhibition at 12.5 µM [1] | inhibition at 25 µM [2] | inhibition at 12.5 µM | inhibition at 25 µM
1 | CCOC(=O)/C=C/C(=O)N(CCN1CCOCC1)c1nccs1 [IHSF 101, (E)-3-[(2-Morpholin-4-yl-ethyl)-thiazol-2-yl-carbamoyl]-acrylic acid ethyl ester] | > 25 µM | -30% | 48% |  | 
2 | CCOC(=O)/C=C/C(=O)Nc1cc(C)nc(C)c1 [IHSF 082, (E)-3-(2,6-Dimethyl-pyridin-4-ylcarbamoyl)-acrylic acid ethyl ester] |  | 58% | 91% |  | 
3 | O=C(/C=C/C1=NCCCO1)Nc1nccs1 [IHSF 090, (E)-3-(5,6-Dihydro-4H-[1,3]oxazin-2-yl)-N-thiazol-2-yl-acrylamide] | 5.4 µM | 78% | 98% |  | 
4 | CCCCOC(=O)/C=C/C(=O)Nc1nccs1 [IHSF 042, (E)-3-(Thiazol-2-ylcarbamoyl)-acrylic acid butyl ester] |  | 1% | 52% |  | 
5 | CCOC(=O)/C=C/C(=O)N(C)c1nccs1 [IHSF 070, (E)-3-(Methyl-thiazol-2-yl-carbamoyl)-acrylic acid ethyl ester] | 5.7 µM | 72% | 90% |  | 
6 | CCOC(=O)/C=C/C(=O)Nc1ccnc(C)c1 [IHSF 048, (E)-3-(2-Methyl-pyridin-4-ylcarbamoyl)-acrylic acid ethyl ester] |  | 37% | 67% |  | 
7 | CCOC(=O)/C=C/C(=O)Nc1nc(CC)c(-c2ccccc2)s1 [IHSF 107, (E)-3-(4-Ethyl-5-phenyl-thiazol-2-ylcarbamoyl)-acrylic acid ethyl ester] | 10.6 µM | 62% | 92% |  | 
8 | CCOC(=O)/C=C/C(=O)Nc1ncc(C)s1 [IHSF 013, (E)-3-(5-Methyl-thiazol-2-ylcarbamoyl)-acrylic acid ethyl ester] |  | 34% | 50% |  | 
9 | CCOC(=O)/C=C/C(=O)Nc1ccnc(N2CCN(C)CC2)c1 [IHSF 078, (E)-3-[2-(4-Methyl-piperazin-1-yl)-pyridin-4-ylcarbamoyl]-acrylic acid ethyl ester formic acid salt] |  |  |  | 32% | 54%
10 | CCOC(=O)/C=C/C(=O)Nc1nncs1 [IHSF 018, (E)-3-([1,3,4]Thiadiazol-2-ylcarbamoyl)-acrylic acid ethyl ester] | 23.6 µM | 20% | 53% |  | 
11 | CCOC(=O)/C=C/C(=O)Nc1nc(C2CC2)cs1 [IHSF 053, (E)-3-(4-Cyclopropyl-thiazol-2-ylcarbamoyl)-acrylic acid ethyl ester] |  | 15% | 29% |  | 
12 | CCOC(=O)/C=C/C(=O)Nc1cc(-c2ccccc2)cs1 [IHSF 043, (E)-3-(4-Phenyl-thiophen-2-ylcarbamoyl)-acrylic acid ethyl ester] |  | 32% | 5% |  | 
13 | O=C(/C=C/c1ncno1)Nc1nccs1 [IHSF 089, (E)-3-(1,2,4-Oxadiazol-5-yl)-N-(thiazol-2-yl)acrylamide] | 17.9 µM | 41% | 61% |  | 
14 | CCOC(=O)/C=C/C(=O)Nc1ccnc(-c2ccc(C)cc2)c1 [IHSF 081, (E)-3-(2-p-Tolyl-pyridin-4-ylcarbamoyl)-acrylic acid ethyl ester formic acid salt] |  |  |  | 42% | 65%
15 | CCOC(=O)/C=C/C(=O)Nc1ccn(C)n1 [IHSF 016, (E)-3-(1-Methyl-1H-pyrazol-3-ylcarbamoyl)-acrylic acid ethyl ester] |  | 0% | 25% |  | 
16 | O=C(/C=C/c1nnco1)Nc1nccs1 [IHSF 091, (E)-3-(1,3,4-Oxadiazol-2-yl)-N-(thiazol-2-yl)acrylamide] | > 25 µM | 22% | 27% |  | 
17 | COC(=O)/C=C/C(=O)Nc1nccs1 [IHSF 027, (E)-3-(Thiazol-2-ylcarbamoyl)-acrylic acid methyl ester] |  | 18% | 42% |  | 

— patent US11597708B2, “Inhibitors of heat shock factors and uses thereof” (HSF Pharmaceuticals SA, priority 2016, dated 2023)
